Test results from the NIST ThermoML archive (doi:10.1021/je0341256).
Values joined by “and” are separate entries in the source; they are usually repeats but may differ in a detail not shown here. Identical values can stand only once. Numbers after ± are expanded uncertainties.

Conditions: Liquid, Closed cell (Static) method

SMILES	vapor or sublimation pressure (332.06 K) [kPa]	vapor or sublimation pressure (332.08 K)	also measured
C/C=C/C [(E)-2-butene]	605.74 ± 2.1	606.44 ± 2.1 kPa and 606.14 ± 2.1 kPa	vapor or sublimation pressure (332.04 K): 605.54 ± 2.1 kPa; vapor or sublimation pressure (332.07 K): 606.94 ± 2.1 kPa
CC(C)O [propan-2-ol]			vapor or sublimation pressure (332.03 K): 36.47 ± 0.42 kPa
CO [methanol]		80.97 ± 0.48 kPa	
CCO [ethanol]	44.67 ± 0.43		
CC(C)(C)O [2-methylpropan-2-ol]	36.97 ± 0.42		
CCC(C)O (centres undefined) [butan-2-ol]		17.27 ± 0.4 kPa	
